Data from ChEMBL document CHEMBL5096228, “Targeting Vancomycin-Resistant Enterococci (VRE) Infections and Van Operon-Mediated Drug Resistance Using Dimeric Cholic Acid-Peptide Conjugates” (J Med Chem, 2022).
≈ marks a conversion by molar mass, not a printed value. Positions of bridges follow the written chain, without caps; N, C: chain ends. Non-standard residues stand in square brackets, D forms with d. Residues, ends and D or L forms follow the SMILES beside them. *: point of attachment. X1 = CC[C@H](C)CCCCC(=O)*; Dab = NCC[C@H](N)C(=O)O

Key:
[1] = Hemolytic activity in human RBC at 50 ug/ml; type: toxicity, cell-based, Erythrocyte; conditions: red blood cells (erythrocytes), at 50 µg/mL, read-out: Activity
[2] = system: Staphylococcus aureus; assay: Antimicrobial activity against Staphylococcus aureus ATCC 25923 assessed as growth inhibition after 14 to 16 hrs by CLSI based broth dilution method; type: functional; conditions: time 14-16 hrs
[3] = system: Enterococcus faecium; assay: Antimicrobial activity against Enterococcus faecium assessed as growth inhibition after 14 to 16 hrs by CLSI based broth dilution method; type: functional; conditions: time 14-16 hrs
[4] = Cytotoxicity against mouse LLC cells assessed as reduction in cell viability; type: toxicity, cell-based; conditions: LLC (3LL) cells
[5] = system: Staphylococcus aureus; assay: Antimicrobial activity against methicillin-resistant Staphylococcus aureus ATCC 33591 assessed as growth inhibition after 14 to 16 hrs by CLSI based broth dilution method; type: functional; conditions: time 14-16 hrs
[6] = system: Enterococcus faecium; assay: Antimicrobial activity against Vancomycin-resistant Enterococcus faecium ATCC 51559 assessed as growth inhibition after 14 to 16 hrs by CLSI based broth dilution method; type: functional; conditions: time 14-16 hrs

Structure (SMILES) | hemolysis at 50 ug/ml [1] [%] | MIC99 [2] [mg/L] | MIC99 [3] [mg/L] | IC50 [4] | MIC99 [5] [mg/L] | MIC99 [6] [mg/L]
CC(C)C(N)C(=O)NCC(=O)O[C@@H]1CC[C@@]2(C)[C@@H](C1)C[C@@H](OC(=O)CNC(=O)C(N)C(C)C)[C@@H]1[C@@H]2C[C@H](OC(=O)CNC(=O)C(N)C(C)C)[C@]2(C)[C@@H]([C@H](C)CCC(=O)NCc3cn(CCCCCn4cc(CNC(=O)CC[C@@H](C)[C@H]5CC[C@H]6[C@@H]7[C@H](OC(=O)CNC(=O)C(N)C(C)C)C[C@@H]8C[C@H](OC(=O)CNC(=O)C(N)C(C)C)CC[C@]8(C)[C@H]7C[C@H](OC(=O)CNC(=O)C(N)C(C)C)[C@]56C)nn4)nn3)CC[C@@H]12.Cl.Cl.Cl.Cl.Cl.Cl (some centres not stated) | 36 | 128 | 16 | 96 mg/L | 32 | 4
NC[C@@H]1O[C@H](O[C@H]2[C@@H](O)[C@H](O[C@@H]3[C@@H](O)[C@H](N)C[C@H](N)[C@H]3O[C@H]3O[C@H](CN)[C@@H](O)[C@H](O)[C@H]3N)O[C@@H]2CO)[C@H](N)[C@@H](O)[C@@H]1O [FRAMYCETIN] |  | 16 (≈ 26 µM) | 16 (≈ 26 µM) | > 1000 µM | > 128 | > 128
C[C@H](CCC(=O)NCc1cn(CCCn2cc(CNC(=O)CC[C@@H](C)[C@H]3CC[C@H]4[C@@H]5[C@H](OC(=O)CN)C[C@@H]6C[C@H](OC(=O)CN)CC[C@]6(C)[C@H]5C[C@H](OC(=O)CN)[C@]34C)nn2)nn1)[C@H]1CC[C@H]2[C@@H]3[C@H](OC(=O)CN)C[C@@H]4C[C@H](OC(=O)CN)CC[C@]4(C)[C@H]3C[C@H](OC(=O)CN)[C@]12C.Cl.Cl.Cl.Cl.Cl.Cl | 9 | 128 | 32 | 131 mg/L | 32 | 16
C[C@H](CCC(=O)NCc1cn(CCCCn2cc(CNC(=O)CC[C@@H](C)[C@H]3CC[C@H]4[C@@H]5[C@H](OC(=O)CN)C[C@@H]6C[C@H](OC(=O)CN)CC[C@]6(C)[C@H]5C[C@H](OC(=O)CN)[C@]34C)nn2)nn1)[C@H]1CC[C@H]2[C@@H]3[C@H](OC(=O)CN)C[C@@H]4C[C@H](OC(=O)CN)CC[C@]4(C)[C@H]3C[C@H](OC(=O)CN)[C@]12C.Cl.Cl.Cl.Cl.Cl.Cl | 2 | 128 | 64 | 211 mg/L | 64 | 32
CC(C)C(N)C(=O)NCC(=O)O[C@@H]1CC[C@@]2(C)[C@@H](C1)C[C@@H](OC(=O)CNC(=O)C(N)C(C)C)[C@@H]1[C@@H]2C[C@H](OC(=O)CNC(=O)C(N)C(C)C)[C@]2(C)[C@@H]([C@H](C)CCC(=O)OCc3ccccc3)CC[C@@H]12 (some centres not stated) | 95 | 16 (≈ 16.5 µM) | 8 (≈ 8.27 µM) | 40 mg/L | 4 (≈ 4.14 µM) | 2 (≈ 2.07 µM)
CC(C)C(N)C(=O)NCC(=O)O[C@@H]1CC[C@@]2(C)[C@@H](C1)C[C@@H](OC(=O)CNC(=O)C(N)C(C)C)[C@@H]1[C@@H]2C[C@H](OC(=O)CNC(=O)C(N)C(C)C)[C@]2(C)[C@@H]([C@H](C)CCC(=O)NCc3cn(CCCCn4cc(CNC(=O)CC[C@@H](C)[C@H]5CC[C@H]6[C@@H]7[C@H](OC(=O)CNC(=O)C(N)C(C)C)C[C@@H]8C[C@H](OC(=O)CNC(=O)C(N)C(C)C)CC[C@]8(C)[C@H]7C[C@H](OC(=O)CNC(=O)C(N)C(C)C)[C@]56C)nn4)nn3)CC[C@@H]12.Cl.Cl.Cl.Cl.Cl.Cl (some centres not stated) | 50 | 128 | 8 | 52 mg/L | 32 | 4
C[C@H](CCC(=O)NCc1cn(CCCCCn2cc(CNC(=O)CC[C@@H](C)[C@H]3CC[C@H]4[C@@H]5[C@H](OC(=O)CN)C[C@@H]6C[C@H](OC(=O)CN)CC[C@]6(C)[C@H]5C[C@H](OC(=O)CN)[C@]34C)nn2)nn1)[C@H]1CC[C@H]2[C@@H]3[C@H](OC(=O)CN)C[C@@H]4C[C@H](OC(=O)CN)CC[C@]4(C)[C@H]3C[C@H](OC(=O)CN)[C@]12C.Cl.Cl.Cl.Cl.Cl.Cl | 10 | 128 | 32 | 153 mg/L | 64 | 16
CC(C)C(N)C(=O)NCC(=O)O[C@@H]1CC[C@@]2(C)[C@@H](C1)C[C@@H](OC(=O)CNC(=O)C(N)C(C)C)[C@@H]1[C@@H]2C[C@H](OC(=O)CNC(=O)C(N)C(C)C)[C@]2(C)[C@@H]([C@H](C)CCC(=O)NCc3cn(CCCCCCn4cc(CNC(=O)CC[C@@H](C)[C@H]5CC[C@H]6[C@@H]7[C@H](OC(=O)CNC(=O)C(N)C(C)C)C[C@@H]8C[C@H](OC(=O)CNC(=O)C(N)C(C)C)CC[C@]8(C)[C@H]7C[C@H](OC(=O)CNC(=O)C(N)C(C)C)[C@]56C)nn4)nn3)CC[C@@H]12.Cl.Cl.Cl.Cl.Cl.Cl (some centres not stated) | 57 | 128 | 16 | 69 mg/L | 32 | 4
C[C@H](CCC(=O)NCc1cn(CCCCCCn2cc(CNC(=O)CC[C@@H](C)[C@H]3CC[C@H]4[C@@H]5[C@H](OC(=O)CN)C[C@@H]6C[C@H](OC(=O)CN)CC[C@]6(C)[C@H]5C[C@H](OC(=O)CN)[C@]34C)nn2)nn1)[C@H]1CC[C@H]2[C@@H]3[C@H](OC(=O)CN)C[C@@H]4C[C@H](OC(=O)CN)CC[C@]4(C)[C@H]3C[C@H](OC(=O)CN)[C@]12C.Cl.Cl.Cl.Cl.Cl.Cl | 58 | 128 | 16 | 66 mg/L | 32 | 8
CC[C@H](C)CCCCC(=O)N[C@@H](CCN)C(=O)N[C@H](C(=O)N[C@@H](CCN)C(=O)N[C@H]1CCNC(=O)[C@H]([C@@H](C)O)NC(=O)[C@H](CCN)NC(=O)[C@H](CCN)NC(=O)[C@H](CC(C)C)NC(=O)[C@@H](Cc2ccccc2)NC(=O)[C@H](CCN)NC1=O)[C@@H](C)O (X1-[Dab]T[Dab][Dab][Dab][dF]L[Dab][Dab]T; lactam 4-C) |  | 128 (≈ 106 µM) | > 128 |  | 32 (≈ 26.6 µM) | > 128
